From patent US20240000820A1, “A METHOD OF TREATING FOOT ROT” (Intervet Inc., priority 2020, published 2024)

Tests used:
[1] = system: naturally occurring foot rot; test: Efficacy of a single subcutaneous dose against naturally occurring foot rot in feedlot cattle (lameness and lesion scoring); type: in vivo, bovine animals; settings: for average lameness score: score guide 1-5 (Table 1); for average lesion score: score guide 1-5 (Table 2)
Experimental: (§1) Thirty animals were enrolled to the Control Group and another thirty animals were enrolled in the Tildipirosin treated Group. The tildipirosin-treated group received a single dose, subcutaneously, while the control group was treated with a saline sterile solution. Both groups (treated and control) were housed in the same paddocks under typical Brazilian feedlot conditions.
Sixty animals were included in the trial in two different phases, according to the number of available animals that fulfill the inclusion criteria. The study was masked. […] The animals were randomized and evenly distributed across the treatment groups according to 15 blocks of 2 animals each in both inclusion dates (there were 2 inclusion dates, for a total of 60 animals).
The effectiveness of tildipirosin for the treatment of foot rot was evaluated by comparing the proportion of treatment success/improvement in the tildipirosin-treated group to the saline-treated control group on Day 7.
The lameness and the lesion scoring are described in Tables 1 and 2 below.
The animals' lesion and lameness score were assessed by the investigator on Days −1 and 0 of the study. To qualify for the effectiveness portion of the study, animals were diagnosed with foot rot by meeting the following criteria: • Lameness Score 3 in at least one foot for 2 consecutive days. • Lesion Score 2 in at least one foot for 2 consecutive days. • Clinically healthy (excepting lameness) • Body weight (348-499 kg body weight) • Age (20-24 months)
On Day 0, before treatment, bacteriological samples were collected from the infected hooves of the enrolled cattle. Lesions and lameness were also assessed on Days 2, 4 and 7. Treatment success, improvement, or failure was determined on Day 7 and was based on lameness and lesion score compared to Day 0. On Day 7, another bacteriological sample was collected from all animals.

[2] = Health observations and adverse events in the foot rot study; type: in vivo, bovine animals
Experimental: as §1

[3] = system: Fusobacterium necrophorum; test: Bacterial evaluation of hoof lesion samples (culture, biochemical tests and PCR) before treatment and on Day 7; type: in vivo; settings: Day 0 vs Day 7, in comparison to the control group
Experimental: On Day 0, before treatment, bacteriological samples were collected from the infected hooves of the enrolled cattle. Lesions and lameness were also assessed on Days 2, 4 and 7. Treatment success, improvement, or failure was determined on Day 7 and was based on lameness and lesion score compared to Day 0. On Day 7, another bacteriological sample was collected from all animals. Bacteriological samples were collected on a sterile scraper and on a sterile swab from the border of healthy and necrotic tissue (around the hoof lesion) of the infected hooves of the enrolled cattle. The tip of the scraper, containing discharge from the lesions, was fractured off into 15 ml tubes containing 7 ml of a semi solid transport media formulated exclusively to anaerobic bacteria and the swab was discharged in a semi solid transport. The tubes were kept under refrigeration (4 to 8° C.) until they arrive into the laboratory. At the laboratory, the samples grew in culture media appropriated to F. necrophorum and Dichelobacter nodosus isolation. Isolates were identified using confirmatory biochemical tests and polymerase chain reaction (PCR) specific to F. necrophorum and D. nodosus species.

[4] = Day 0, before treatment, treated group
[5] = Day 7 after single subcutaneous dose of 4 mg/kg BW

Structure (SMILES): CC[C@H]1OC(=O)C[C@@H](O)[C@H](C)[C@@H](O[C@@H]2O[C@H](C)[C@@H](O)[C@H](N(C)C)[C@H]2O)[C@@H](CCN2CCCCC2)C[C@@H](C)C(=O)/C=C/C(C)=C/[C@@H]1CN1CCCCC1 [tildipirosin, (4R,5S,6S,7R,9R,11E,13E,15R,16R)-6-[(2R,3R,4S,5S,6R)-4-(dimethylamino)-3,5-dihydroxy-6-methyloxan-2-yl]oxy-16-ethyl-4-hydroxy-5,9,13-trimethyl-7-(2-piperidin-1-ylethyl)-15-(piperidin-1-ylmethyl)-1-oxacyclohexadeca-11,13-diene-2,10-dione]
- average lameness score [1, 4]: 3.1
- average lesion score [1, 4]: 2.3
- average lameness score [1, 5]: 1.3
- average lesion score [1, 5]: 1.9
- treatment of naturally occurring foot rot ([1]; single subcutaneous dose of 4 mg of tildipirosin per kg BW): effectively treat
- abnormal health observations ([2]; before or after treatment, single subcutaneous dose 4 mg/kg BW): no abnormal health observations
- adverse event (broken toenail on Day 7, one animal), relation to treatment ([2]; tildipirosin-treated group, according to the investigator): not related to the tildipirosin treatment
- bacterial evaluation (PCR identification of Fusobacterium necrophorum before vs after treatment) [3]: not conclusive
